{"source": "patent US20060293374A1", "about": "“Substituted isothiazolones” (priority 2005, published 2006)", "key": {"Neutrophil LTB4": {"test_system": "Neutrophil LTB4", "test": "Neutrophil LTB4 assay (calcium ionophore challenge, EIA)", "format": "cell-based", "details": "test concentration of 5 μM, human neutrophils, calcium ionophore 1 μM; for inhibition at 5 µM: Neutrophil, read-out: LTB4 percent inhibition", "protocol": "Neutrophils purified from human blood were resuspended in HBSS buffer containing calcium and magnesium to a cell density of 1×10^6/mL. Purified neutrophils were then incubated with test compounds at a test concentration of 5 μM for 15 min at 37° C. Following incubation, the cells were challenged with calcium ionophore (1 μM final) for 15 minutes at 37° C. Negative control wells were incubated with equal volume of vehicle. The reaction was stopped by transferring the plate to ice for 5 minutes. The plate was centrifuged at 1500 RPM for 5 min at 4° C. LTB4 was calculated in cell free supernatants by EIA (Assay Design Inc)."}, "[1]": {"test_system": "TXB2 Released by Human Platelets", "test": "Ionophore and arachidonic acid induced TXB2 released by human platelets (EIA)", "format": "cell-based", "details": "human platelet-rich plasma, challenge with calcium ionophore (10 μM) or arachidonic acid (50 μM)", "protocol": "Ionophore and Arachidonic Acid Induced TXB2 Released by Human Platelets\nThe plate was incubated for 15 minutes at 37° C. Following incubation, platelets were challenged with calcium ionophore (final 10 μM) or arachidonic acid (AA) (final 50 μM) and the plate was further incubated at 37° C. for 15 min. The plate was transferred to an ice bed for 5 min in order to stop the reaction. Supernatants were assayed for TXB2 production by EIA (Assay Design Inc) after diluting with assay buffer (Assay Design Inc)."}}, "note": "pIC50: −log10 of the molar value."}
{"smiles": "O=c1cc(Cl)sn1Cc1ccc(-c2csnn2)cc1", "note": "[Cpd 21, 5-chloro-2-(4-[1,2,3]thiadiazol-4-yl-benzyl)isothiazol-3-one]", "values": [{"measurement": "inhibition at 5 µM", "setting": "Neutrophil LTB4", "result": 87, "unit": "%"}, {"measurement": "pIC50", "setting": "[1]", "result": 6.00}, {"measurement": "melting point", "result": "152 to 154", "unit": "°C"}]}
{"smiles": "O=C(c1ccccc1)c1ccc(Cn2sc(Cl)cc2=O)cc1", "note": "[Cpd 35, 5-chloro-2-(4-benzoylbenzyl)-isothiazol-3-one]", "values": [{"measurement": "inhibition at 5 µM", "setting": "Neutrophil LTB4", "result": 100, "unit": "%"}, {"measurement": "pIC50", "setting": "[1]", "result": 7.22}]}
{"smiles": "O=c1ccsn1Cc1ccc(-n2cccn2)cc1", "note": "[Cpd 58, 2-(4-pyrazol-1-yl)-benzyl-isothiazol-3-one]", "values": [{"measurement": "LTB4 percent inhibition", "setting": "Neutrophil LTB4", "result": 100, "unit": "%"}, {"measurement": "pIC50", "setting": "[1]", "result": 6.00}]}
{"smiles": "CC(c1ccc(S(C)(=O)=O)cc1)n1sc(Cl)c(Cl)c1=O", "note": "(stereo not drawn) [Cpd 30, 4,5-dichloro-2-[1-(4-methanesulfonyl-phenyl)-ethyl]-isothiazol-3-one]", "values": [{"measurement": "inhibition at 5 µM", "setting": "Neutrophil LTB4", "result": 100, "unit": "%"}, {"measurement": "pIC50", "setting": "[1]", "result": 6.70}]}
{"smiles": "O=c1ccsn1Cc1csc2ccc(Cl)cc12", "note": "[Cpd 20, 2-(5-chloro-benzo[b]thiophen-3-ylmethyl)-isothiazol-3-one]", "values": [{"measurement": "inhibition at 5 µM", "setting": "Neutrophil LTB4", "result": 88, "unit": "%"}, {"measurement": "pIC50", "setting": "[1]", "result": 6.00}]}
{"smiles": "O=c1cc(Cl)sn1Cc1ccc(S(=O)(=O)c2ccc(F)cc2)cc1", "note": "[Cpd 36, 5-chloro-2-[4-(4-fluoro-benzenesulfonyl)-benzyl]-isothiazol-3-one]", "values": [{"measurement": "inhibition at 5 µM", "setting": "Neutrophil LTB4", "result": 56, "unit": "%"}, {"measurement": "pIC50", "setting": "[1]", "result": 6.30}]}
{"smiles": "O=c1cc(Cl)sn1Cc1ccc(-n2cc(Cl)cn2)cc1", "note": "[Cpd 55, 5-chloro-2-[4-(4-chloro-pyrazol-1-yl)-benzyl]-isothiazol-3-one]", "values": [{"measurement": "inhibition at 5 µM", "setting": "Neutrophil LTB4", "result": 72, "unit": "%"}, {"measurement": "pIC50", "setting": "[1]", "result": 5.49}]}
{"smiles": "O=c1ccsn1Cc1csc(-c2ccccc2)n1", "note": "[Cpd 54, 2-(2-phenyl-thiazol-4-ylmethyl)-isothiazol-3-one]", "values": [{"measurement": "inhibition at 5 µM", "setting": "Neutrophil LTB4", "result": 96, "unit": "%"}, {"measurement": "pIC50", "setting": "[1]", "result": 5.82}]}
{"smiles": "O=c1c(Cl)c(Cl)sn1Cc1ccc(C#Cc2cccc(Cl)c2)cc1", "note": "[Cpd 28, 4,5-dichloro-2-[4-(3-chlorophenylethynyl)-benzyl]-isothiazol-3-one]", "values": [{"measurement": "inhibition at 5 µM", "setting": "Neutrophil LTB4", "result": 100, "unit": "%"}, {"measurement": "pIC50", "setting": "[1]", "result": 5.46}]}
{"smiles": "Cc1nc(-c2cccc(-n3sccc3=O)c2)c(Cl)s1", "note": "[Cpd 45, 2-[3-(2-methyl-5-chloro-thiazol-4-yl)-phenyl]-isothiazol-3-one]", "values": [{"measurement": "inhibition at 5 µM", "setting": "Neutrophil LTB4", "result": 100, "unit": "%"}, {"measurement": "pIC50", "setting": "[1]", "result": 5.74}]}
{"smiles": "O=c1ccsn1Cc1ccc2ccccc2c1", "note": "[Cpd 13, 2-naphthalen-2-ylmethyl-isothiazol-3-one]", "values": [{"measurement": "inhibition at 5 µM", "setting": "Neutrophil LTB4", "result": 78, "unit": "%"}, {"measurement": "pIC50", "setting": "[1]", "result": 5.89}]}
{"smiles": "CC(c1cccc2ccccc12)n1sc(Cl)cc1=O", "note": "(stereo not drawn) [Cpd 5, 5-chloro-2-(1-naphthalen-1-yl-ethyl)-isothiazol-3-one]", "values": [{"measurement": "inhibition at 5 µM", "setting": "Neutrophil LTB4", "result": 100, "unit": "%"}, {"measurement": "pIC50", "setting": "[1]", "result": 6.22}]}
{"smiles": "Cc1nc(-c2cccc(-n3sc(Cl)cc3=O)c2)cs1", "note": "[Cpd 47, 5-chloro-2-[3-(2-methyl-thiazol-4-yl)-phenyl]-isothiazol-3-one]", "values": [{"measurement": "inhibition at 5 µM", "setting": "Neutrophil LTB4", "result": 100, "unit": "%"}, {"measurement": "pIC50", "setting": "[1]", "result": 6.00}]}
{"smiles": "O=c1cc(Cl)sn1Cc1csc(-c2ccccc2)n1", "note": "[Cpd 53, 5-chloro-2-(2-phenyl-thiazol-4-ylmethyl)-isothiazol-3-one]", "values": [{"measurement": "inhibition at 5 µM", "setting": "Neutrophil LTB4", "result": 92, "unit": "%"}, {"measurement": "pIC50", "setting": "[1]", "result": 6.40}]}
{"smiles": "O=c1ccsn1Cc1ccc2c(c1)CCO2", "note": "[Cpd 17, 2-(2,3-dihydro-benzofuran-5-ylmethyl)-isothiazol-3-one]", "values": [{"measurement": "inhibition at 5 µM", "setting": "Neutrophil LTB4", "result": 39, "unit": "%"}, {"measurement": "pIC50", "setting": "[1]", "result": 5.24}]}
{"smiles": "O=c1[nH]sc(Cl)c1Cc1csc(-c2cccs2)n1", "note": "[Cpd 62, 5-chloro-(2-thiophen-2-yl-thiazol-4-ylmethyl)-isothiazol-3-one]", "values": [{"measurement": "inhibition at 5 µM", "setting": "Neutrophil LTB4", "result": 96, "unit": "%"}, {"measurement": "pIC50", "setting": "[1]", "result": 6.10}]}
{"smiles": "CC(=O)c1ccc(Cn2sc(Cl)c(Cl)c2=O)cc1", "note": "[Cpd 65, 4,5-dichloro-2-(4-acetylbenzyl)-isothiazol-3-one]", "values": [{"measurement": "inhibition at 5 µM", "setting": "Neutrophil LTB4", "result": 45, "unit": "%"}, {"measurement": "pIC50", "setting": "[1]", "result": 6.40}]}
{"smiles": "O=c1ccsn1Cc1sc2ccccc2c1Cl", "note": "[Cpd 8, 2-(3-chloro-benzo[b]thiophen-2-ylmethyl)-isothiazol-3-one]", "values": [{"measurement": "inhibition at 5 µM", "setting": "Neutrophil LTB4", "result": 74, "unit": "%"}, {"measurement": "pIC50", "setting": "[1]", "result": 5.85}]}
{"smiles": "O=c1c(Cl)c(Cl)sn1Cc1csc2ccc(Cl)cc12", "note": "[Cpd 18, 4,5-dichloro-2-(5-chloro-benzo[b]thiophen-3-ylmethyl)-isothiazol-3-one]", "values": [{"measurement": "inhibition at 5 µM", "setting": "Neutrophil LTB4", "result": 71, "unit": "%"}, {"measurement": "pIC50", "setting": "[1]", "result": 6.55}]}
